# Experimental data published in patent US9657057B2, “Dipeptide and tripeptide epoxy ketone protease inhibitors” (Onyx Therapeutics, Inc., priority 2013, dated 2017).
# Key:
# Solubility pH 7 = type: physicochemical; conditions: pH 7, aqueous buffer
# LMP7 = target: T1, LMP7 (Homo sapiens, UniProt P20618+P28062); assay: ProCISE proteasome subunit assay, LMP7; type: biochemical
# T1 construct: endogenous in cells; host or cells: MOLT-4
# In short: (§1)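 MOLT-4 cell lysate was incubated with compound for 1 h at 25° C, then a subunit-binding probe was applied; probe-bound subunits were pulled down on streptavidin beads after guanidine denaturation and detected with subunit-specific antibodies by HRP chemiluminescence. Signal was normalized to protein and expressed as percent of DMSO control to fit IC50.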
# [1] = target: c20S (constitutive 20S proteasome) (Homo sapiens, UniProt P20618+P28074); assay: 20S proteasome assay, chymotrypsin-like activity (LLVY), c20S; type: biochemical; conditions: LLVY c20S Hu 1 h CONT: IC50 (nM), succinyl-Leu-Leu-Val-Tyr-AMC
# Description: (§2) Assay buffer consisted of TE buffer [20 mmol/L Tris (pH 8.0), 0.5 mmol/L EDTA] with (20S) or without (cell lysate) 0.03% SDS. Reactions were initiated by enzyme or lysate addition and monitored for AMC product formation at 27jC with a plate-based spectofluorometer (Tecan).
# [2] = target: i20S (20S immunoproteasome) (Homo sapiens, UniProt P20618+P28062); assay: 20S proteasome assay, chymotrypsin-like activity (LLVY), i20S; type: biochemical; conditions: LLVY i20S Hu 1 h CONT: IC50 (nM), succinyl-Leu-Leu-Val-Tyr-AMC
# Description: as §2
# β5 = target: T2, β5 (Homo sapiens, UniProt P20618+P28074); assay: ProCISE proteasome subunit assay, β5; type: biochemical
# T2 construct: endogenous in cells; host or cells: MOLT-4
# In short: as §1
# LMP2 = target: T3, LMP2 (Homo sapiens, UniProt P28065+P40306); assay: ProCISE proteasome subunit assay, LMP2; type: biochemical; conditions: MOLT4 lysate Hu 1 h
# T3 construct: endogenous in cells; host or cells: MOLT-4
# Description: This assay was used to assess the inhibitory activity against each of LMP2, LMP7, MECL1, β1, β2, and β5. Briefly, test compounds were serially diluted in DMSO at 100× concentration, then diluted to 10× in aqueous hypotonic lysis buffer. Lysate from the human acute lymphoblastic leukemia cell line, MOLT-4, was treated for 1 hour at 25° C. with compound at a final 1× concentration. […] Following this, lysate was denatured in guanidine hydrochloride, and subunits bound to probe were isolated with streptavidin-conjugated sepharose beads. Individual subunits were probed with subunit-specific primary antibodies, followed by HRP-conjugated secondary antibodies. A chemiluminescent substrate was used to generate signal associated with HRP binding, which was detected on a plate reader. Luminescent signal was normalized to protein content, then, percent activity calculated relative to DMSO-treated controls to generate IC50 curves.
Structure (SMILES),solubility (Solubility pH 7),IC50 (LMP7; MOLT4 lysate Hu 1 h),IC50 [1],IC50 [2],IC50 (β5; MOLT4 lysate Hu 1 h),IC50 (LMP7; ProCISE LMP7 MOLT4 lysate Hu 1 h CONT: IC50 (nM)),IC50 (β5; ProCISE beta5 MOLT4 lysate Hu 1 h CONT: IC50 (nM)),IC50 (LMP2)
"COc1ccc(C[C@H](NC(=O)[C@@H](C)NC(=O)C[C@@H](C)O)C(=O)N[C@@H](CC2CCCC2)C(=O)[C@@]2(C)CO2)cc1 [Compound C-2042, (R)—N—((R)-1-(((S)-1-(((S)-3-cyclopentyl-1-((R)-2-methyloxiran-2-yl)-1-oxopropan-2-yl)amino)-3-(4-methoxyphenyl)-1-oxopropan-2-yl)amino)-1-oxopropan-2-yl)-3-hydroxybutanamide]",1830 µg/mL,621 nM,9450 nM,336 nM,5920 nM,,,
"COc1ccc(C[C@H](NC(=O)[C@@H](C)NC(=O)C[C@H](C)O)C(=O)N[C@@H](CC2CCCC2)C(=O)[C@@]2(C)CO2)cc1 [Compound C-2043, (S)—N—((R)-1-(((S)-1-(((S)-3-cyclopentyl-1-((R)-2-methyloxiran-2-yl)-1-oxopropan-2-yl)amino)-3-(4-methoxyphenyl)-1-oxopropan-2-yl)amino)-1-oxopropan-2-yl)-3-hydroxybutanamide]",2380 µg/mL,593 nM,15100 nM,271 nM,11000 nM,,,
"COc1ccc(C[C@H](NC(=O)[C@@H](CN2CCOCC2)NC(=O)c2cc(C)no2)C(=O)N[C@@H](CC2CCCC2)C(=O)[C@@]2(C)CO2)cc1 [Compound C-2045, N—((R)-1-(((S)-1-(((S)-3-cyclopentyl-1-((R)-2-methyloxiran-2-yl)-1-oxopropan-2-yl)amino)-3-(4-methoxyphenyl)-1-oxopropan-2-yl)amino)-3-morpholino-1-oxopropan-2-yl)-3-methylisoxazole-5-carboxamide]",160 µg/mL,220 nM,1290 nM,102 nM,2940 nM,,,
"COc1ccc(C[C@H](NC(=O)[C@@H](C)NC(=O)C2=C(C)c3ccccc3C2)C(=O)N[C@@H](Cc2ccccc2)C(=O)[C@@]2(C)CO2)cc1 [Compound C-2048, N—((R)-1-(((S)-3-(4-methoxyphenyl)-1-(((S)-1-((R)-2-methyloxiran-2-yl)-1-oxo-3-phenylpropan-2-yl)amino)-1-oxopropan-2-yl)amino)-1-oxopropan-2-yl)-3-methyl-1H-indene-2-carboxamide]",1.4 µg/mL,,411 nM,55.2 nM,,48.6 nM,379 nM,
"C[C@@H](NC(=O)CC(C)(C)O)C(=O)N[C@@H](Cc1ccc(S(C)(=O)=O)cc1)C(=O)N[C@@H](CC1CCCC1)C(=O)[C@@]1(C)CO1 [Compound C-2050, N—((R)-1-(((S)-1-(((S)-3-cyclopentyl-1-((R)-2-methyloxiran-2-yl)-1-oxopropan-2-yl)amino)-3-(4-(methylsulfonyl)phenyl)-1-oxopropan-2-yl)amino)-1-oxopropan-2-yl)-3-hydroxy-3-methylbutanamide]",6160 µg/mL,67.1 nM,521 nM,49.2 nM,595 nM,,,
"CC[C@](C)(O)CC(=O)N[C@H](C)C(=O)N[C@@H](Cc1ccc(OC)cc1)C(=O)N[C@@H](CC1CCCC1)C(=O)[C@@]1(C)CO1 [Compound C-2051, (S)—N—((R)-1-(((S)-1-(((S)-3-cyclopentyl-1-((R)-2-methyloxiran-2-yl)-1-oxopropan-2-yl)amino)-3-(4-methoxyphenyl)-1-oxopropan-2-yl)amino)-1-oxopropan-2-yl)-3-hydroxy-3-methylpentanamide]",241 µg/mL,54.3 nM,459 nM,34 nM,883 nM,,,
"CC[C@@](C)(O)CC(=O)N[C@H](C)C(=O)N[C@@H](Cc1ccc(OC)cc1)C(=O)N[C@@H](CC1CCCC1)C(=O)[C@@]1(C)CO1 [Compound C-2052, (R)—N—((R)-1-(((S)-1-(((S)-3-cyclopentyl-1-((R)-2-methyloxiran-2-yl)-1-oxopropan-2-yl)amino)-3-(4-methoxyphenyl)-1-oxopropan-2-yl)amino)-1-oxopropan-2-yl)-3-hydroxy-3-methylpentanamide]",160 µg/mL,38.5 nM,316 nM,10.8 nM,560 nM,,,
"COc1ccc(C[C@H](NC(=O)[C@@H](C)NC(=O)CC(C)(O)C(F)(F)F)C(=O)N[C@@H](CC2CCCC2)C(=O)[C@@]2(C)CO2)cc1 (stereo partly drawn) [Compound C-2054, N—((R)-1-(((S)-1-(((S)-3-cyclopentyl-1-((R)-2-methyloxiran-2-yl)-1-oxopropan-2-yl)amino)-3-(4-methoxyphenyl)-1-oxopropan-2-yl)amino)-1-oxopropan-2-yl)-4,4,4-trifluoro-3-hydroxy-3-methylbutanamide]",122 µg/mL,75 nM,723 nM,55 nM,670 nM,,,
"COc1ccc(C[C@H](NC(=O)[C@@H](C)NC(=O)CC(C)(C)O)C(=O)N[C@@H](Cc2ccccc2)C(=O)[C@@]2(C)CO2)cc1 [Compound C-2056, 3-hydroxy-N—((R)-1-(((S)-3-(4-methoxyphenyl)-1-(((S)-1-((R)-2-methyloxiran-2-yl)-1-oxo-3-phenylpropan-2-yl)amino)-1-oxopropan-2-yl)amino)-1-oxopropan-2-yl)-3-methylbutanamide]",3730 µg/mL,52.2 nM,191 nM,28.9 nM,291 nM,,,
"COc1ccc(C[C@H](NC(=O)[C@@H](C)NC(=O)CC(C)(C)O)C(=O)N[C@@H](CC2CCCC2)C(=O)[C@@]2(C)CO2)cc1O [Compound C-2059, N—((R)-1-(((S)-1-(((S)-3-cyclopentyl-1-((R)-2-methyloxiran-2-yl)-1-oxopropan-2-yl)amino)-3-(3-hydroxy-4-methoxyphenyl)-1-oxopropan-2-yl)amino)-1-oxopropan-2-yl)-3-hydroxy-3-methylbutanamide]",2450 µg/mL,71 nM,246 nM,15.9 nM,534 nM,,,
"COc1ccc(C[C@H](NC(=O)[C@@H](C)NC(=O)CC(C)(C)O)C(=O)N[C@@H](CC2=CCCC2)C(=O)[C@@]2(C)CO2)cc1O [Compound C-2060, N—((R)-1-(((S)-1-(((S)-3-(cyclopent-1-en-1-yl)-1-((R)-2-methyloxiran-2-yl)-1-oxopropan-2-yl)amino)-3-(3-hydroxy-4-methoxyphenyl)-1-oxopropan-2-yl)amino)-1-oxopropan-2-yl)-3-hydroxy-3-methylbutanamide]",3010 µg/mL,60.4 nM,201 nM,17.3 nM,368 nM,,,
"COc1ccc(C[C@H](NC(=O)[C@@]2(C)CCC(=O)N2)C(=O)N[C@@H](Cc2ccccc2)C(=O)[C@@]2(C)CO2)cc1 [Compound C-3010, (R)—N—((S)-3-(4-methoxyphenyl)-1-(((S)-1-((R)-2-methyloxiran-2-yl)-1-oxo-3-phenylpropan-2-yl)amino)-1-oxopropan-2-yl)-2-methyl-5-oxopyrrolidine-2-carboxamide]",1380 µg/mL,1160 nM,4080 nM,1610 nM,4300 nM,,,
"COc1ccc(C[C@H](NC(=O)[C@H]2CCC(=O)N2)C(=O)N[C@@H](Cc2ccccc2)C(=O)[C@@]2(C)CO2)cc1 [Compound C-3012, (R)—N—((S)-3-(4-methoxyphenyl)-1-(((S)-1-((R)-2-methyloxiran-2-yl)-1-oxo-3-phenylpropan-2-yl)amino)-1-oxopropan-2-yl)-5-oxopyrrolidine-2-carboxamide]",4410 µg/mL,2750 nM,14500 nM,4790 nM,6040 nM,,,
"COc1ccc(C[C@H](NC(=O)[C@@H]2CCC(=O)N2)C(=O)N[C@@H](Cc2ccccc2)C(=O)[C@@]2(C)CO2)cc1 [Compound C-3013, (S)—N—((S)-3-(4-methoxyphenyl)-1-(((S)-1-((R)-2-methyloxiran-2-yl)-1-oxo-3-phenylpropan-2-yl)amino)-1-oxopropan-2-yl)-5-oxopyrrolidine-2-carboxamide]",1910 µg/mL,3480 nM,15900 nM,4050 nM,14200 nM,,,
"COc1ccc(C[C@H](NC(=O)c2cccc(=O)[nH]2)C(=O)N[C@@H](CC2CCCC2)C(=O)[C@@]2(C)CO2)cc1 [Compound C-3014, N—((S)-1-(((S)-3-Cyclopentyl-1-((R)-2-methyloxiran-2-yl)-1-oxopropan-2-yl)amino)-3-(4-methoxyphenyl)-1-oxopropan-2-yl)-6-oxo-1,6-dihydropyridine-2-carboxamide]",69.4 µg/mL,,,,,,,34.9 nM
